Data: PMC4470473 (Cancer cell, 2015)
Where two headings read alike, the source gives them in different places.

Tests used:
[1] = target: Purified recombinant Bcl2 protein (Homo sapiens, UniProt P10415); assay: Cell-free Bcl2 conformational change, IP with anti-Bcl2/BH3 domain antibody; type: biochemical; settings: cell-free system
Bcl2 ΔBH3 = assay: Fluorescence polarization assay; type: binding; settings: deletion of BH3
[2] = target: D10A/N11A/R12A/E13A (AAAA) Bcl2 mutant (Homo sapiens, UniProt P10415, D10A/E13A/N11A/R12A); assay: Competitive fluorescence polarization assay; type: binding
M16A Bcl2 mutant = M16A Bcl2 mutant (Homo sapiens, UniProt P10415, M16A); assay: Competitive fluorescence polarization assay; type: binding
Bcl2 ΔBH1 = assay: Fluorescence polarization assay; type: binding; settings: deletion of BH1
[3] = Maximum tolerated dose, 12-day daily i.p. treatment; type: in vivo
R12A Bcl2 mutant = R12A Bcl2 mutant (Homo sapiens, UniProt P10415, R12A); assay: Competitive fluorescence polarization assay; type: binding
N11A Bcl2 mutant = N11A Bcl2 mutant (Homo sapiens, UniProt P10415, N11A); assay: Competitive fluorescence polarization assay; type: binding
Plasmid pUC19 DNA = assay: Electrophoretic mobility shift assay; type: binding
Single-dose MTD = type: in vivo
H460 cells [4] = assay: Autophagy; type: cell-based, human
H460 cells [5] = assay: Bcl2/IP3R interaction and Ca2+ release; type: cell-based, human; settings: increasing concentrations, 24h
H20A Bcl2 mutant = H20A Bcl2 mutant (Homo sapiens, UniProt P10415, H20A); assay: Competitive fluorescence polarization assay; type: binding
[6] = test system: normal small airway epithelial cell line (SAEC); assay: Annexin-V/PI cell viability in normal cells; type: cell-based; settings: 1μM, 72 hr
K17A Bcl2 mutant = K17A Bcl2 mutant (Homo sapiens, UniProt P10415, K17A); assay: Competitive fluorescence polarization assay; type: binding
SCLC PDX = assay: Patient-derived xenograft; type: in vivo, Nu/Nu nude mice; settings: 20mg/kg/d i.p., 2 weeks
MEF cells = assay: Apoptotic effect on WT and Bax knockout MEF cells; type: cell-based
[7] = test system: H460 or DMS53 cells expressing Bcl2 shRNA1; assay: Rescue of Bcl2-silenced cells with exogenous WT or AAAA Bcl2; type: cell-based, human
Mcl-1 = Mcl-1 (Homo sapiens, UniProt Q07820); assay: Fluorescence polarization assay; type: binding
D10A Bcl2 mutant = D10A Bcl2 mutant (Homo sapiens, UniProt P10415, D10A); assay: Competitive fluorescence polarization assay; type: binding
Bfl-1/A1 = Bfl-1/A1 (Homo sapiens, UniProt Q16548); assay: Fluorescence polarization assay; type: binding
Bcl2 ΔBH4 = Bcl2 ΔBH4 (Homo sapiens, UniProt P10415, DEL6-31); assay: Fluorescence polarization assay; type: binding; settings: BH4 domain deficient Bcl2
[8] = test system: mitochondria isolated from H1299 cells; assay: Cyt c release from isolated mitochondria; type: biochemical, human; settings: 1μM, 30 min, 30°C
H1299 cells = assay: Cell survival of H1299 cells overexpressing exogenous WT or mutant Bcl2; type: cell-based, human
H460 cells [9] = assay: SRB growth assay, single agents and combination; type: cell-based, human
E13A Bcl2 mutant = E13A Bcl2 mutant (Homo sapiens, UniProt P10415, E13A); assay: Competitive fluorescence polarization assay; type: binding
Bcl-XL = Bcl-XL (Homo sapiens, UniProt Q07817); assay: Fluorescence polarization assay; type: binding
[10] = test system: NSCLC and SCLC cell lines; assay: Cell growth; type: cell-based, human
[11] = test system: H460, H157, DMS53, DMS153 and H146 cells expressing Bcl2 shRNA; assay: Apoptosis; type: cell-based, human; settings: 1μM, 72 hr; Bcl2 shRNA1, shRNA2 or shRNA3
[12] = test system: H460 lung cancer xenografts; assay: H460 lung cancer xenografts
Bcl2 ΔBH2 = assay: Fluorescence polarization assay; type: binding; settings: deletion of BH2
D31A Bcl2 mutant = D31A Bcl2 mutant (Homo sapiens, UniProt P10415, D31A); assay: Competitive fluorescence polarization assay; type: binding
purified recombinant Bax = assay: Cell-free Bax activation, IP with 6A7 Bax antibody; type: biochemical; settings: for direct Bax activation: Bax without Bcl2
Bcl2 (WT) = Bcl2 (WT) (Homo sapiens, UniProt P10415); assay: Competitive fluorescence polarization assay with fluorescent Bak peptide; type: binding
[13] = cited from earlier work
Bcl2 = Bcl2 expression by IHC in tumor tissues of NSCLC patients; type: in vivo, human; settings: 5 or 10mg/day orally, 28 days, 10 NSCLC patients
H460 cells [14] = assay: Bcl2 expression by Western blot after mTOR inhibition; type: cell-based, human; settings: increasing concentrations, 24 hr
A549 cells = assay: as above; type: cell-based, human; settings: increasing concentrations, 24 hr
[15] = exogenous AAAA Bcl2 mutant, 72 hr
[16] = 10, 20, 30mg/kg/d i.p., 14 days

Bfl-1/A1, sequence (Q16548 whole entry, the tested form may be a part): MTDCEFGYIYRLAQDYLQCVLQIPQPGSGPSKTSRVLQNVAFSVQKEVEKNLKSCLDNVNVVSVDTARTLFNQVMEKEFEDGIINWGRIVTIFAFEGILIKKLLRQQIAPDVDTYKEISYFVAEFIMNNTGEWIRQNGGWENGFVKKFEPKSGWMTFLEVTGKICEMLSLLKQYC
Bcl-XL, sequence (Q07817 whole entry, species assumed): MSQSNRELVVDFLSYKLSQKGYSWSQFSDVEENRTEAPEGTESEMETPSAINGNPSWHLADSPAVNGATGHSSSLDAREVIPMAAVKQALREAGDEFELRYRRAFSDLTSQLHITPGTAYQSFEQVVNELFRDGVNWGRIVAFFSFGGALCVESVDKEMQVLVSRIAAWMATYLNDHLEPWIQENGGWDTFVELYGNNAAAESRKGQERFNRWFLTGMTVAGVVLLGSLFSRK
Mcl-1, sequence (Q07820 whole entry, species assumed): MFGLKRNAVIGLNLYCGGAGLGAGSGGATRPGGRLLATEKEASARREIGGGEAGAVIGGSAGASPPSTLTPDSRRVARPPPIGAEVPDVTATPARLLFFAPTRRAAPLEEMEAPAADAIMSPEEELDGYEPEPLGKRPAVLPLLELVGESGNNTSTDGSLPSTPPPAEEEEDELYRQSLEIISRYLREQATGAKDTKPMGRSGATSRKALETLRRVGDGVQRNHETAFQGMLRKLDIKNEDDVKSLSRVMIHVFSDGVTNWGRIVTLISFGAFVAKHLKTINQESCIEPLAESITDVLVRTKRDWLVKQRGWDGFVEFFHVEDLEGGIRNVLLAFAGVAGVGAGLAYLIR

Molecule: COc1cc([C@@H]2c3cc4c(cc3[C@@H](O[C@@H]3O[C@@H]5CO[C@@H](C)O[C@H]5[C@H](O)[C@H]3O)[C@H]3COC(=O)[C@H]23)OCO4)cc(OC)c1O [VP-16]
- Bcl2 conformational change (BH3 domain exposure) [1]: not a chemotherapeutic agent (i.e. VP-16 or cisplatin) can directly induce Bcl2 conformational change

Molecule: CCN(CC)C[C@@H](O)CNc1ccc(NC[C@H]2CO2)c2c1C(=O)c1ccccc1C2=O [BDA-366]
- Bcl2 conformational change (BH3 domain exposure) [1]: enhanced the ability of the Bcl2/BH3 domain-specific antibody to bind Bcl2
- effect of domain deletion on binding (Bcl2 ΔBH3): did not significantly affect
- Ki [2]: 598.64 ± 0.12 nM
- Ki (M16A Bcl2 mutant): 3.9 ± 0.31 nM
- effect of domain deletion on binding (Bcl2 ΔBH1): did not significantly affect
- time to death (uniformly lethal) ([3]; 40mg/kg/d i.p.): ≤ 8 days
- time to death (uniformly lethal) ([3]; 50mg/kg/d i.p.): up to 12 days
- lethality ([3]; 10 to 30mg/kg/d i.p., up to 12 days): no death
- Ki (R12A Bcl2 mutant): 4.3 ± 0.54 nM
- Ki (N11A Bcl2 mutant): 4.1 ± 0.67 nM
- DNA binding (mobility shift) (Plasmid pUC19 DNA): but not BDA-366 can bind to pUC19 DNA
- maximum therapeutic dose for continuous treatment (Single-dose MTD; 10% of single dose MTD): 30~40 mg/kg
- single dose MTD (Single-dose MTD; mouse, in vivo): 300 to 400 mg/kg
- toxicity (Single-dose MTD; single dose 300mg/kg i.p.): did not cause weight loss or other toxicities
- ALT and AST (Single-dose MTD; single dose 400mg/kg): significantly enhanced
- pathological analysis of organs (Single-dose MTD; single dose 400mg/kg): microsteatosis in the liver and atrophic white pulp in the spleen
- time to death (Single-dose MTD; single dose 400mg/kg): 4 days
- LC3-II levels (H460 cells [4]; 1 μM, 24h): Increased levels of LC3-II
- percentage of GFP-LC3vac cells (H460 cells [4]; vs DMSO control): significantly increases
- Bcl2/IP3R binding (H460 cells [5]): reduced Bcl2/IP3R binding
- Ca2+ release (H460 cells [5]): increased Ca^2+ release
- Ki (H20A Bcl2 mutant): 3.8 ± 0.47 nM
- sensitivity of normal cells [6]: less sensitive
- Ki (K17A Bcl2 mutant): 4.2 ± 0.45 nM
- tumor growth (SCLC PDX): potently suppressed the growth
- sensitivity of Bax deficient vs WT MEF cells (MEF cells): significantly resistant
- sensitivity of cells [7, 15]: not to BDA-366
- sensitivity of cells ([7]; exogenous WT Bcl2, 72 hr): restored sensitivity
- binding (Mcl-1): did not bind
- Ki (D10A Bcl2 mutant): 4.8 ± 0.41 nM
- binding (Bfl-1/A1): did not bind
- binding (Bcl2 ΔBH4): failed to bind
- Cyt c release ([8]; WT Bcl2 mitochondria): induced Cyt c release
- Cyt c release ([8]; ΔBH3 and vector-only control mitochondria): not from ΔBH3 and vector-only control cells
- cell survival (H1299 cells; compound Bcl2 AAAA mutant): significantly prolonged cell survival
- sensitivity of cells (H1299 cells; exogenous WT or single site Bcl2 mutants): enhanced sensitivity
- cell growth inhibition (H460 cells [9]; 100nM): partially inhibited
- Ki (E13A Bcl2 mutant): 4.5 ± 0.71 nM
- binding (Bcl-XL): did not bind
- sensitivity of cell lines ([10]; higher Bcl2: H157, Calu-1, H358, H460, H1975, DMS53, DMS153, H146, H69): more sensitive
- sensitivity of cell lines ([10]; lower or undetectable Bcl2: A549, H1299, DMS114, H128): less sensitive
- sensitivity after depletion of endogenous Bcl2 [11]: significantly reduced sensitivity
- body weight ([12]; 30mg/kg): Slight weight loss
- apoptosis in tumor tissues (active caspase 3, TUNEL) [12, 16]: dose-dependent apoptosis induction
- tumor growth [12, 16]: dose-dependent repression
- histopathology of normal tissues ([12]; 10–30mg/kg/d): no evidence of normal tissue toxicities
- Bcl2 BH3 domain exposure in tumor tissues (QD-IHF) ([12]; 14 days): dose-dependent exposure of the Bcl2 BH3 domain
- active Bax (6A7) in tumor tissues (QD-IHF) ([12]; 14 days): increased level of 6A7 binding to Bax
- kidney (BUN) and liver (ALT and AST) function ([12]; up to 30mg/kg/d, 14 days): in the normal range
- neutrophils, lymphocytes, RBC and platelets in blood ([12]; up to 30mg/kg/d, 14 days): no decreases
- effect of domain deletion on binding (Bcl2 ΔBH2): did not significantly affect
- Ki (D31A Bcl2 mutant): 3.7 ± 0.91 nM
- direct Bax activation (purified recombinant Bax): is not a direct Bax activator
- Bcl2-dependent Bax activation (purified recombinant Bax; Bcl2 pre-treated with compound 1 hr, then Bax 2 hr): enhanced the ability of Bax to bind to 6A7 antibody
- Ki (Bcl2 (WT)): 3.3 ± 0.73 nM

Molecule: N.N.[Cl][Pt][Cl] [cisplatin, reference compound]
- Bcl2 conformational change (BH3 domain exposure) [1]: not a chemotherapeutic agent (i.e. VP-16 or cisplatin) can directly induce Bcl2 conformational change
- DNA binding (mobility shift) (Plasmid pUC19 DNA): can bind to pUC19 DNA

Molecule: CC1(C)CCC(CN2CCN(c3ccc(C(=O)NS(=O)(=O)c4ccc(NCC5CCOCC5)c([N+](=O)[O-])c4)c(Oc4cnc5[nH]ccc5c4)c3)CC2)=C(c2ccc(Cl)cc2)C1 [ABT-199, reference compound]
- sensitivity of cells [7, 15]: restored the sensitivity
- sensitivity of cells ([7]; exogenous WT Bcl2, 72 hr): restored sensitivity
- thrombocytopenia ([13]; in vivo, ref Souers et al., 2013): did not cause thrombocytopenia

Molecule: BAM7 [reference compound]
- direct Bax activation (purified recombinant Bax): can directly activate Bax

Molecule: CC1(C)CCC(c2ccc(Cl)cc2)=C(CN2CCN(c3ccc(C(=O)NS(=O)(=O)c4ccc(N[C@H](CCN5CCOCC5)CSc5ccccc5)c(S(=O)(=O)C(F)(F)F)c4)cc3)CC2)C1 [ABT-263]
- thrombocytopenia ([13]; ref Schoenwaelder et al., 2011): can induce thrombocytopenia

Molecule: CN(C)CC[C@H](CSc1ccccc1)Nc1ccc(S(=O)(=O)NC(=O)c2ccc(N3CCN(Cc4ccccc4-c4ccc(Cl)cc4)CC3)cc2)cc1[N+](=O)[O-] [ABT-737]
- thrombocytopenia ([13]; ref Schoenwaelder et al., 2011): can induce thrombocytopenia

Molecule: CO[C@H]1C[C@@H]2CC[C@@H](C)[C@@](O)(O2)C(=O)C(=O)N2CCCC[C@H]2C(=O)O[C@H]([C@H](C)C[C@@H]2CC[C@@H](OCCO)[C@H](OC)C2)CC(=O)[C@H](C)/C=C(\C)[C@@H](O)[C@@H](OC)C(=O)[C@H](C)C[C@H](C)/C=C/C=C/C=C/1C [RAD001, everolimus]
- Bcl2 expression in post-treatment vs baseline tumor tissues (Bcl2): increased expression of Bcl2
- Bcl2 expression (H460 cells [14]): up-regulation of Bcl2 in a dose-dependent manner
- Bcl2 expression (A549 cells): up-regulation of Bcl2 in a dose-dependent manner
- cell growth inhibition (H460 cells [9]; 1nM): partially inhibited
- apoptosis in tumor tissues ([12]; 1mg/kg/d, 14 days, alone): did not cause significant apoptosis
